Data on 29 compounds can be found in patent publication US7135466B2 (Kirin Beer Kabushiki Kaisha, priority 1999, dated 2006).

One experiment concerns the target T1, c-kit (Homo sapiens, UniProt P10721).
T1 construct: MO7e (human megakaryocytic leukemia cell line) which had been arrested for 20 hr; endogenous in cells; host or cells: MO7e human megakaryocytic leukemia cell line
Description: Inhibitory activity against c-kit autophosphorylation (MO7e cells, h-SCF). The format is cell-based. Particulars: for IC50: MO7e cells, h-SCF 50 ng/ml, read-out: c-kit IC50. The method, boiled down: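 In this cellular autophosphorylation assay, compound-treated MO7e cells (1 hr) were challenged with human stem cell factor at 50 ng/ml for 5 min; detection relied on PY-20 capture and anti-c-kit/HRP immunodetection at 450 nm.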

Another experiment deals with T2, PDGF-Ra (Homo sapiens, UniProt P16234).
T2 construct: host or cells: G-292 human osteosarcoma cells
The experiment can be described thus: Inhibitory activity against PDGF-Ra phosphorylation by PDGF-AA stimulation using G292. The format is cell-based. Particulars: for IC50: Pharmacological Test Example 1, > means inhibition at indicated concentration not more than 50%, < and << not less than 50%, read-out: PDGF (E) IC50; for inhibition at 0.1 µM: G292, figure in parentheses in >100( ), at 100 nM, read-out: PDGF (E) inhibition (%) at 100 nM. The gist of the method: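 In G-292 osteosarcoma cells kept overnight in 0.1% FBS, compound exposure (1 hr, 37 °C) preceded PDGF-AA stimulation at 50 ng/ml for 5 min; receptor phosphotyrosine was then detected by PY-20 capture ELISA.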

T2 sequence (P16234 24-1089): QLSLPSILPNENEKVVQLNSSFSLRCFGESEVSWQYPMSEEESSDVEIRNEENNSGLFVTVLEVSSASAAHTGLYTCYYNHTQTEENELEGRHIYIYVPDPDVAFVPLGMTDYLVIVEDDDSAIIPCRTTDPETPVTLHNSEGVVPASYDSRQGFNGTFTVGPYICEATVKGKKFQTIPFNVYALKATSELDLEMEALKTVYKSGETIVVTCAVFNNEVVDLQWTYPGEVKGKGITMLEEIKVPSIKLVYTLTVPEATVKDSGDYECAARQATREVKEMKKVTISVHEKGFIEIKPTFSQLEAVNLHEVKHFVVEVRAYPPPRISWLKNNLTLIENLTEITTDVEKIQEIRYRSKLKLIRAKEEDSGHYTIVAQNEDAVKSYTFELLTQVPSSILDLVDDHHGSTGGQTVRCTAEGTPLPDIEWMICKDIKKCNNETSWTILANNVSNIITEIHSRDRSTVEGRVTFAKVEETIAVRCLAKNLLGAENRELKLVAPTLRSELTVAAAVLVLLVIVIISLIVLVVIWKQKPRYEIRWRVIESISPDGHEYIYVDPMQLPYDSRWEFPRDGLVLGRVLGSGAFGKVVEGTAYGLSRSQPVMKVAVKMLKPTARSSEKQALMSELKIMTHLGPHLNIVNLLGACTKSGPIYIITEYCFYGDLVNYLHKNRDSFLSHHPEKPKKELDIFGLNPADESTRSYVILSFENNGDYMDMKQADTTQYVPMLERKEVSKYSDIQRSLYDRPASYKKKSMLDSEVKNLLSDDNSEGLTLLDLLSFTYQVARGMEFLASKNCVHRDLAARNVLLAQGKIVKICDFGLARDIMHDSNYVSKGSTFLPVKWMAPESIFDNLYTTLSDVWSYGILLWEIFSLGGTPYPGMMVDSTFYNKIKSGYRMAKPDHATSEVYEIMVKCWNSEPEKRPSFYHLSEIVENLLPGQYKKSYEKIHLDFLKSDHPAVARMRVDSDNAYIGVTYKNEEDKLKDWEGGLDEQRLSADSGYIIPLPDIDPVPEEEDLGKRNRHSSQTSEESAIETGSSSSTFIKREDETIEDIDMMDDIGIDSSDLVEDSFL
T1 sequence (P10721 26-976): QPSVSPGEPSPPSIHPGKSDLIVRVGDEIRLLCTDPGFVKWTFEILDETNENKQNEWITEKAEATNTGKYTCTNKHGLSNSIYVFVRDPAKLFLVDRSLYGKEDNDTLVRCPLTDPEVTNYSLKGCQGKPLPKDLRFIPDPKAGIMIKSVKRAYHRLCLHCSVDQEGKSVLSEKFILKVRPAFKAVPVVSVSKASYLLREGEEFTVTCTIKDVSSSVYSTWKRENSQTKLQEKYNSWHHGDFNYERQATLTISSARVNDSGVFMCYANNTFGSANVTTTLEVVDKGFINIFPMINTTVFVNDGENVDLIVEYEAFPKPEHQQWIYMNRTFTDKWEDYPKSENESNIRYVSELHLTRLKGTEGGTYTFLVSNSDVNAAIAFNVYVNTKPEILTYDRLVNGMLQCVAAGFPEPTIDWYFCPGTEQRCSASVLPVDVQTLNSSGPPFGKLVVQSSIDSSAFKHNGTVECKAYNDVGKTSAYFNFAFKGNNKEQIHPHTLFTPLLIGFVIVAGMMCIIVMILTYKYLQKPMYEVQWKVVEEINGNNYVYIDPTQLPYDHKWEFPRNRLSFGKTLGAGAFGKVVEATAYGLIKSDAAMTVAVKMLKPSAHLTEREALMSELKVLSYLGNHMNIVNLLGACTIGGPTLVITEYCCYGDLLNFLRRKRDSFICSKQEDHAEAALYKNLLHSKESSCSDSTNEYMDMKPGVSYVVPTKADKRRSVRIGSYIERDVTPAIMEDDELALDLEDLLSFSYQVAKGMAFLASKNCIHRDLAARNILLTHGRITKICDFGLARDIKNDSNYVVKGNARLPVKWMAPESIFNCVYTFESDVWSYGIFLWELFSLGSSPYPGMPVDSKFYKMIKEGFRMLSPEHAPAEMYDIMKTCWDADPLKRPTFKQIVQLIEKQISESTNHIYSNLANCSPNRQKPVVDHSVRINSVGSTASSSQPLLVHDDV

What is called IC50 is the concentration needed to halve the response being measured. As to `COc1cc2nccc(Oc3cc(C)c(NC(=O)OCCCOc4ccccc4Cl)cc3C)c2cc1OC` [Example 18, 3-(2-Chlorophenoxy)propyl N-{4-[(6,7-dimethoxy-4-quinolyl)oxy]-2,5-dimethylphenyl}carbamate], the IC50 is 93 nM on c-kit and 22 nM at PDGF-Ra.
For `COc1cc2ncnc(Oc3ccc(NC(=O)OCCCOc4ccccc4Cl)cc3)c2cc1OC` [Example 19, 3-(2-Chlorophenoxy)propyl N-{4-[(6,7-dimethoxy-4-quinazolinyl)oxy]phenyl}carbamate], the concentration for half-maximal inhibition (IC50) on c-kit is 41 nM; on PDGF-Ra it was under 10 nM.
For the compound `COc1cc2ncnc(Oc3ccc(NC(=O)OCCCOc4ccccc4Cl)c(Cl)c3)c2cc1OC` [Example 20, 3-(2-Chlorophenoxy)propyl N-{2-chloro-4-[(6,7-dimethoxy-4-quinazolinyl)oxy]phenyl}carbamate], the IC50 on c-kit was 109 nM; on PDGF-Ra, under 10 nM.
In the case of `COc1cc2nccc(Oc3ccc(NC(=O)OCc4ccc(C(F)(F)F)cc4)cc3)c2cc1OC` [Example 21, 4-(Trifluoromethyl)benzyl N-{4-[(6,7-dimethoxy-4-quinolyl)oxy]phenyl}carbamate], the values for the IC50 on c-kit and on PDGF-Ra were 135 nM and under 10 nM, respectively.
On the same counts, the results for `COc1cc2nccc(Oc3ccc(NC(=O)OCc4ccc(C(F)(F)F)cc4)c(C)c3C)c2cc1OC` [Example 22, 4-(Trifluoromethyl)benzyl N-{4-[(6,7-dimethoxy-4-quinolyl)oxy]-2,3-dimethylphenyl}carbamate] are 186 nM and under 10 nM.
On to `COc1cc2nccc(Oc3cc(C)c(NC(=O)OCc4ccc(C(F)(F)F)cc4)cc3C)c2cc1OC` [Example 23, 4-(Trifluoromethyl)benzyl N-{4-[(6,7-dimethoxy-4-quinolyl)oxy]-2,5-dimethylphenyl}carbamate], for which the half-inhibitory concentration (IC50) is 475 nM on c-kit and under 10 nM at PDGF-Ra.
Turning to `COc1cc2ncnc(Oc3ccc(NC(=O)OCc4ccc(C(F)(F)F)cc4)cc3)c2cc1OC` [Example 24, 4-(Trifluoromethyl)benzyl N-{4-[(6,7-dimethoxy-4-quinazolinyl)oxy]phenyl}carbamate], the IC50 on c-kit was 129 nM; at PDGF-Ra, under 10 nM.
In the same order, the values of `COc1cc2ncnc(Oc3ccc(NC(=O)OCc4ccc(C(F)(F)F)cc4)c(Cl)c3)c2cc1OC` [Example 25, 4-(Trifluoromethyl)benzyl N-{2-chloro-4-[(6,7-dimethoxy-4-quinazolinyl)oxy]phenyl}carbamate] are 566 nM and under 10 nM.
In the same order, the values of `COc1cc2nccc(Oc3ccc(NC(=O)OCCCOc4ccccc4Cl)cc3)c2cc1OC` [Example 26, 3-(2-Chlorophenoxy)propyl N-{4-[(6,7-dimethoxy-4-quinolyl)oxy]phenyl}carbamate] are 44 nM and under 10 nM.
In the same order, the values of `COc1cc2nccc(Oc3ccc(NC(=O)OCCCOc4ccc(Cl)cc4)cc3)c2cc1OC` [Example 27, 3-(4-Chlorophenoxy)propyl N-{4-[(6,7-dimethoxy-4-quinolyl)oxy]phenyl}carbamate] are 76 nM and under 10 nM.
For the compound `COc1cc2nccc(Oc3ccc(NC(=O)OCCCOc4ccc(Cl)cc4)c(C)c3C)c2cc1OC` [Example 28, 3-(4-Chlorophenoxy)propyl N-{4-[(6,7-dimethoxy-4-quinolyl)oxy]-2,3-dimethylphenyl}carbamate], the IC50 is 118 nM at c-kit and under 10 nM at PDGF-Ra.
In the same order, the values of `COc1cc2nccc(Oc3cc(C)c(NC(=O)OCCCOc4ccc(Cl)cc4)cc3C)c2cc1OC` [Example 29, 3-(4-Chlorophenoxy)propyl N-{4-[(6,7-dimethoxy-4-quinolyl)oxy]-2,5-dimethylphenyl}carbamate] are 121 nM and 27 nM.
On the same counts, the results for `COc1cc2ncnc(Oc3ccc(NC(=O)OCCCOc4ccc(Cl)cc4)cc3)c2cc1OC` [Example 30, 3-(4-Chlorophenoxy)propyl N-{4-[(6,7-dimethoxy-4-quinazolinyl)oxy]phenyl}carbamate] are under 30 nM and under 10 nM.
Consider `COc1cc2ncnc(Oc3ccc(NC(=O)OCCCOc4ccc(Cl)cc4)c(Cl)c3)c2cc1OC` [Example 31, 3-(4-Chlorophenoxy)propyl N-{2-chloro-4-[(6,7-dimethoxy-4-quinazolinyl)oxy]phenyl}carbamate], for which the IC50 at c-kit is 221 nM; on PDGF-Ra, under 10 nM.
In the same order, the values of `COc1ccc(C(C)OC(=O)Nc2ccc(Oc3ccnc4cc(OC)c(OC)cc34)cc2)cc1` (stereo not drawn) [Example 32, 1-(4-Methoxyphenyl)ethyl N-{4-[(6,7-dimethoxy-4-quinolyl)oxy]phenyl}carbamate] are 227 nM and 16 nM.
In the same order, the values of `COc1ccc(C(C)OC(=O)Nc2ccc(Oc3ccnc4cc(OC)c(OC)cc34)c(C)c2C)cc1` (stereo not drawn) [Example 33, 1-(4-Methoxyphenyl)ethyl N-{4-[(6,7-dimethoxy-4-quinolyl)oxy]-2,3-dimethylphenyl}carbamate] are 362 nM and 23 nM.
Usually inhibition stands for the share of the control response that was lost under treatment. Consider `COc1ccc(C(C)OC(=O)Nc2cc(C)c(Oc3ccnc4cc(OC)c(OC)cc34)cc2C)cc1` (stereo not drawn) [Example 34, 1-(4-Methoxyphenyl)ethyl N-{4-[(6,7-dimethoxy-4-quinolyl)oxy]-2,5-dimethylphenyl}carbamate], for which the half-inhibitory concentration (IC50) on c-kit was 800 nM; on PDGF-Ra, over 100 nM. Also, the inhibition at 0.1 µM on PDGF-Ra is 45%.
`COc1ccc(C(C)OC(=O)Nc2ccc(Oc3ncnc4cc(OC)c(OC)cc34)cc2)cc1` (stereo not drawn) [Example 35, 1-(4-Methoxyphenyl)ethyl N-{4-[(6,7-dimethoxy-4-quinazolinyl)oxy]phenyl}carbamate]: the half-maximal inhibitory concentration (IC50) at c-kit was 342 nM; at PDGF-Ra, under 10 nM.
For `COc1ccc(C(C)OC(=O)Nc2ccc(Oc3ncnc4cc(OC)c(OC)cc34)cc2Cl)cc1` (stereo not drawn) [Example 36, 1-(4-Methoxyphenyl)ethyl N-{2-chloro-4-[(6,7-dimethoxy-4-quinazolinyl)oxy]phenyl}carbamate], at c-kit (Mo7e, figure in parentheses in −( ), at 1000 nM), the inhibition at 1 µM came out at 19%. For the same compound, on PDGF-Ra, the inhibition at 0.1 µM came to 34% and the IC50 is over 100 nM.
With `COc1cc2nccc(Oc3ccc(NC(=O)OCCCSc4ccc(C)cc4)cc3)c2cc1OC` [Example 37, 3-[(4-Methylphenyl)sulfanyl)propyl N-{4-[(6,7-dimethoxy-4-quinolyl)oxy]phenyl}carbamate], the IC50 at c-kit is under 30 nM; at PDGF-Ra it was under 10 nM.
On the same counts, the results for `COc1cc2nccc(Oc3ccc(NC(=O)OCCCSc4ccc(C)cc4)c(C)c3C)c2cc1OC` [Example 38] are 33 nM and under 10 nM.
For the compound `COc1cc2nccc(Oc3cc(C)c(NC(=O)OCCCSc4ccc(C)cc4)cc3C)c2cc1OC` [Example 39, 3-[(4-Methylphenyl)sulfanyl)propyl N-{4-[(6,7-dimethoxy-4-quinolyl)oxy]-2,5-dimethylphenyl}-carbamate], the IC50 is 56 nM at c-kit and under 10 nM at PDGF-Ra.
`COc1cc2ncnc(Oc3ccc(NC(=O)OCCCSc4ccc(C)cc4)cc3)c2cc1OC` [Example 40, 3-[(4-Methylphenyl)sulfanyl)propyl N-{4-[(6,7-dimethoxy-4-quinazolinyl)oxy]phenyl}carbamate]: the IC50 on c-kit was 55 nM; at PDGF-Ra, under 10 nM.
In the same order, the values of `COc1cc2ncnc(Oc3ccc(NC(=O)OCCCSc4ccc(C)cc4)c(Cl)c3)c2cc1OC` [Example 41, 3-[(4-Methylphenyl)sulfanyl)propyl N-{2-chloro-4-[(6,7-dimethoxy-4-quinazolinyl)oxy]phenyl}-carbamate] are 185 nM and under 10 nM.
On the same counts, the results for `COc1ccc(OCCCOC(=O)Nc2ccc(Oc3ccnc4cc(OC)c(OC)cc34)cc2)cc1` [Example 42, 3-(4-Methoxyphenoxy)propyl N-{4-[(6,7-dimethoxy-4-quinolyl)oxy]phenyl}carbamate] are 73 nM and under 10 nM.
Turning to `COc1ccc(OCCCOC(=O)Nc2ccc(Oc3ccnc4cc(OC)c(OC)cc34)c(C)c2C)cc1` [Example 43, 3-(4-Methoxyphenoxy)propyl N-{4-[(6,7-dimethoxy-4-quinolyl)oxy]-2,3-dimethylphenyl}carbamate], the IC50 at c-kit is 158 nM; at PDGF-Ra, under 10 nM.
Turning to `COc1ccc(OCCCOC(=O)Nc2cc(C)c(Oc3ccnc4cc(OC)c(OC)cc34)cc2C)cc1` [Example 44, 3-(4-Methoxyphenoxy)propyl N-{4-[(6,7-dimethoxy-4-quinolyl)oxy]-2,5-dimethylphenyl}carbamate], the concentration for half-maximal inhibition (IC50) on c-kit worked out at 328 nM; at PDGF-Ra, 19 nM.
In the same order, the values of `COc1ccc(OCCCOC(=O)Nc2ccc(Oc3ncnc4cc(OC)c(OC)cc34)cc2)cc1` [Example 45, 3-(4-Methoxyphenoxy)propyl N-{4-[(6,7-dimethoxy-4-quinazolinyl)oxy]phenyl}carbamate] are 91 nM and under 10 nM.
In the same order, the values of `COc1ccc(OCCCOC(=O)Nc2ccc(Oc3ncnc4cc(OC)c(OC)cc34)cc2Cl)cc1` [Example 46, 3-(4-Methoxyphenoxy)propyl N-{2-chloro-4-[(6,7-dimethoxy-4-quinazolinyl)oxy]phenyl}carbamate] are 388 nM and 22 nM.
